Five molecules from paper PMC9821843, “Powerful Potential of Polyfluoroalkyl-Containing 4-Arylhydrazinylidenepyrazol-3-ones for Pharmaceuticals” (Molecules, 2022) can be followed below.

≈ marks a conversion by molar mass, not a printed value. Where two headings read alike, the source gives them in different places.

Series [1] concerns the target T1, human erythrocyte acetylcholinesterase (AChE, EC 3.1.1.7) (Homo sapiens, UniProt P22303).
T1 construct: human erythrocyte acetylcholinesterase (AChE, EC 3.1.1.7); purchased Sigma-Aldrich (Saint Louis, MO, USA); host or cells: human erythrocytes
Briefly: Inhibition of human erythrocyte acetylcholinesterase (Ellman assay). The format is biochemical. To be noted: read-out: Inhibition % at 20 µM, Human AChE. The text has this:
(§1) The following enzymes were purchased from Sigma-Aldrich (Saint Louis, MO, USA): porcine liver carboxylesterase (CES, EC 3.1.1.1), human erythrocyte acetylcholinesterase (AChE, EC 3.1.1.7) and equine serum butyrylcholinesterase (BChE, EC 3.1.1.8). Substrates for CES, AChE and BChE were 4-nitrophenyl acetate (4-NPA), acetylthiocholine iodide (ATCh) and butyrylthiocholine iodide (BTCh), respectively, and the colorimetric reagent for the AChE and BChE assays was 5,5’-dithio-bis-(2-nitrobenzoic acid) (DTNB) (Sigma-Aldrich). All the kinetic experiments were performed under standard conditions, according to the protocol of IPAC RAS for a reversible inhibitors study.
Reagent blanks consisted of reaction mixtures without enzyme to assess non-enzymatic hydrolysis of substrates.
Test compounds were dissolved in DMSO. Reaction mixtures contained a final DMSO concentration of 2% (v/v). […] Measurements were performed in a Bio-Rad Benchmark Plus microplate reader. Each experiment was performed in triplicate. Plots, linear regressions and values of IC50, were determined using Origin 6.1 for Windows, OriginLab (Northampton, MA, USA).

In series [2] the target is T2, equine serum butyrylcholinesterase (BChE, EC 3.1.1.8) (Equus caballus, UniProt P81908).
T2 construct: equine serum butyrylcholinesterase (BChE, EC 3.1.1.8); purchased Sigma-Aldrich (Saint Louis, MO, USA); host or cells: equine serum
Briefly: Inhibition of equine serum butyrylcholinesterase (Ellman assay). The format is biochemical. To be noted: read-out: Inhibition % at 20 µM, Equine BChE.
Description: as §1
Final concentrations of reactants were 0.33 mM DTNB, 0.02 unit/mL of AChE or BChE and 1 mM of substrate (ATCh or BTCh, respectively). Reagent blanks consisted of reaction mixtures without enzyme to assess non-enzymatic hydrolysis of substrates.
Test compounds were dissolved in DMSO. Reaction mixtures contained a final DMSO concentration of 2% (v/v). […] Substrate was then added and residual enzyme activity relative to an inhibitor-free control was measured using a Bio-Rad Benchmark Plus microplate reader (Marnes-la-Coquette, France).
Measurements were performed in a Bio-Rad Benchmark Plus microplate reader. Each experiment was performed in triplicate. Plots, linear regressions and values of IC50, were determined using Origin 6.1 for Windows, OriginLab (Northampton, MA, USA).

Series [3] deals with Neisseria gonorrhoeae ATCC 49226/NCTC 12700. Nature of the series: Antibacterial activity against Neisseria gonorrhoeae. The format is cell-based. To be noted: read-out: MIC against Neisseria gonorrhoeae. How it is done:
Antibacterial activity testing was done on the growth medium Difco GC medium base (Becton Dickinson, Franklin Lakes, NJ, USA) supplemented with 1% IsoVitaleX. Dilutions of chemical compounds were carried out in the range of 250–0.12 μg/mL in 24 well sterile plates (Sarstedt, Germany). Daily cultures of control bacterial strains were identified on a VITEK MS analyzer (BioMérieux, Marcy-l’Étoile, France) by MALDI-TOF mass spectrometry. The inoculation dose of N. gonorrhoeae inoculum was 10^5 CFU/mL.

Series [4] can be described thus: Acute toxicity evaluation in mice (ip). As to conditions: CD-1, mouse, in vivo, 300 mg/kg. On the procedure:
The toxicity evaluation was performed on CD-1 mice. […] The tested compounds in 1% starch mucilage were injected intraperitoneally into three mice. Then, animals were observed during 14 days, the number of deaths was counted and % of viability calculated.

For the next series, the system named is Sprague-Dawley (SD) rats. Nature of the series: Hot plate test (analgesic activity). The format is in vivo. As to conditions: Rattus norvegicus, hot plate test, rats, ip, dose 15 mg/kg, n.a. = inactive (p > 0.05). How it is done: The hot plate test was conducted according to established guidelines on Sprague-Dawley (SD) rats (3 male and 3 female rodents per group). The compounds were intraperitoneally administered in the form of suspensions in 1% starch mucilage. Negative control group animals received vehicle only (1% starch mucilage). Diclofenac sodium (Hemofarm, Vršac, Serbia, 10 mg/kg in 1% starch mucilage solution) or metamizole sodium (PAO Biosynthesis, Sun Pharma, Penza, Russia, 15 mg/kg in 1% starch mucilage solution) were used as reference drugs. One and two hours after the injection, rats were placed on an electrically heated to 50 °C plate (Hot plate 60,200 series, TSE-systems, Bad Homburg, Germany) in a Plexiglas cylindrical restrainer (19 cm diameter × 30 cm). The nociceptive response time was measured by observing the appearance of rats’ movements (e.g., jumping, hind paw licking or shaking). Maximal cutoff time was set as 30 s regardless of the response in order to preclude skin damage.
Differences between the values of the latency period for the treated (experimental) and control groups of animals were considered significant at p ≤ 0.05.

Series [5] concerns Microsporum canis RCPF F 1643/1585. Nature of the series: Antifungal susceptibility testing, M. canis. As to conditions: Microsporum canis, RCPFF1643/1585, read-out: MIC for fungi strains inhibition, M. canis.
Description: (§2) The solvent was DMSO. […] In each test, a growth control and a sterility control were used.
For series [6], the system named is Trichophyton rubrum RCPF F 1408. Briefly: Antifungal susceptibility testing, T. rubrum. To be noted: Trichophyton rubrum, RCPFF1408, read-out: MIC for fungi strains inhibition, T. rubrum.
Description: as §2
Series [7] deals with Candida albicans RCPF Y 401/NCTC 885/653. Briefly: Antifungal susceptibility testing, C. albicans. To be noted: NCTC885, read-out: MIC for fungi strains inhibition, C. albicans.
Description: as §2
The subject of series [8] is Epidermophyton floccosum RCPF F 1659/17. Nature of the series: Antifungal susceptibility testing, E. floccosum. To be noted: Epidermophyton floccosum, RCPFF1659/17, read-out: MIC for fungi strains inhibition, E. floccosum.
Description: as §2
Series [9] in a line: ABTS radical cation scavenging activity assay. As to conditions: mean ± SEM; for ABTS•+-scavenging activity, TEAC (trolox equivalent antioxidant capacity): n.a. = inactive. More on the design: key to ABTS•+-scavenging activity, TEAC (trolox equivalent antioxidant capacity): TEAC = ratio of compound slope to Trolox slope vs ABTS absorbance. On the procedure: Radical scavenging activity of the compounds was evaluated by the ABTS radical cation (ABTS^•+) scavenging assay by the ability of the compounds to decolorize the ABTS^•+ solution [112] with some modifications. Trolox was used as a reference standard. Edaravone was used as the comparison compound. All tested compounds and standards were dissolved in DMSO. ABTS (2,2′-azinobis-(3-ethylbenzothiazoline-6-sulfonic acid)) was purchased from Tokyo Chemical Industry Co. Ltd. (Tokyo, Japan). Potassium persulfate (di-potassium peroxdisulfate), Trolox® (6-hydroxy-2,5,7,8-tetramethychroman-2-carboxylic acid), ascorbic acid, DMSO and HPLC-grade ethanol were obtained from Sigma-Aldrich Chemical Co. Aqueous solutions were prepared using deionized water.
The solution of ABTS^•+ was produced by mixing 7 mM ABTS aqueous solution with 2.45 mM potassium persulfate aqueous solution in equal quantities and allowing them to react for 12–16 h at room temperature in the dark. Radical scavenging capacity of the compounds was analyzed by mixing 10 μL of compound with 240 μL of ABTS^•+ working solution in ethanol (100 μM final concentration), and after 1 h of incubation at 30 °C the decrease in absorbance was measured spectrophotometrically at 734 nm using a Bio-Rad xMark microplate UV/VIS spectrophotometer (Bio-Rad, Hercules, CA, USA). The compounds were tested in the concentration range of 5 × 10^–7–4 × 10^–4 M. Ethanol blanks were run in each assay. Values were obtained from five replicates of each sample and three independent experiments.
Antioxidant activity was calculated as Trolox equivalent antioxidant capacity (TEAC values), consisting of the ratio between the slopes obtained from the linear correlation for concentrations of the tested compounds and Trolox with absorbance of ABTS radical. For the test compounds, which reduce ABTS^•+ absorbance by more than 60% at 100 µM, we also determined IC50 values as 50% reduction of the ABTS radical. The calculations were carried out using Origin 6.1 for Windows. Results were presented as mean ± SEM, calculated using GraphPad Prism version 6.05 for Windows, GraphPad Software.

A short description of series [10]: Oxygen radical absorbance capacity (ORAC-FL) assay. To be noted: n.a. = inactive; i.t.s. = interferes with test system. The text has this: We evaluated the primary antioxidant activity of synthesized 4-AHPs 5–9 in comparison with their non-fluorinated analogues 9a,b using three standard tests: ABTS, FRAP (ferric reducing antioxidant power) and ORAC (oxygen radical absorbance capacity) assays. The ABTS assay evaluates the binding of a model ABTS radical cation (ABTS^•+), which is realized by the mechanism of single electron transfer (SET) and/or hydrogen atom transfer (HAT). The FRAP assay measures the ability of compounds to reduce the ferric 2,4,6-tripyridyl-s-triazine complex [Fe(TPTZ)2]^3+ to [Fe(TPTZ)2]^2+, which occurs exclusively by the SET mechanism. The ORAC-FL assay measures the oxidative degradation of the fluorescent molecule (FL – fluorescein) after being mixed with a free peroxyl radical generator such as 2,2′-azobis-(2-methylpropionamidine) dihydrochloride (AAPH) in the presence of antioxidant (tested compound). The ORAC-FL test describes the antioxidants’ ability to yield the hydrogen atom and, consequently, it is a HAT-based assay. Trolox was used in all tests as a reference antioxidant: the antioxidant activity of the test compounds was referred to the activity of Trolox. The well-known antioxidant Edaravone was also used for comparison.
The ORAC assay was performed according to the known method, with minor variations and described by us recently.

The mark [11] stands for this setting: 1 h, read-out: Latent Period Prolongation, % 1 h.
[12] abbreviates: 2 h, read-out: Latent Period Prolongation, % 2 h.

T2 sequence (P81908 whole entry): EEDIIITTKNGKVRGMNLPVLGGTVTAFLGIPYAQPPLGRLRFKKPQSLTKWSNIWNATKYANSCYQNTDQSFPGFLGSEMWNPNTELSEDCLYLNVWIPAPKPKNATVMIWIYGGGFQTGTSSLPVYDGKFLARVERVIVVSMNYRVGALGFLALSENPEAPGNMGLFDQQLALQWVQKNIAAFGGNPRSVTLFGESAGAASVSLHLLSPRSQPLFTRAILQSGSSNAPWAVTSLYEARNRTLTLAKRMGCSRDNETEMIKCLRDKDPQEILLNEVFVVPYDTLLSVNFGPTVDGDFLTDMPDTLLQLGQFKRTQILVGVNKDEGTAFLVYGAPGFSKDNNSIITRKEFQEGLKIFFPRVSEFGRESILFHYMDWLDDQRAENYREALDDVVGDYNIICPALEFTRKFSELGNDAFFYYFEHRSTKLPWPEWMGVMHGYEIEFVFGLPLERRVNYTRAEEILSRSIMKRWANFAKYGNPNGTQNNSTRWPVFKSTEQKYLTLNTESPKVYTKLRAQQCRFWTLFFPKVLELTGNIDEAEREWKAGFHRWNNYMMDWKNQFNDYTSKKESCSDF
T1 sequence (P22303 32-617 isoform P22303-2 limits assumed): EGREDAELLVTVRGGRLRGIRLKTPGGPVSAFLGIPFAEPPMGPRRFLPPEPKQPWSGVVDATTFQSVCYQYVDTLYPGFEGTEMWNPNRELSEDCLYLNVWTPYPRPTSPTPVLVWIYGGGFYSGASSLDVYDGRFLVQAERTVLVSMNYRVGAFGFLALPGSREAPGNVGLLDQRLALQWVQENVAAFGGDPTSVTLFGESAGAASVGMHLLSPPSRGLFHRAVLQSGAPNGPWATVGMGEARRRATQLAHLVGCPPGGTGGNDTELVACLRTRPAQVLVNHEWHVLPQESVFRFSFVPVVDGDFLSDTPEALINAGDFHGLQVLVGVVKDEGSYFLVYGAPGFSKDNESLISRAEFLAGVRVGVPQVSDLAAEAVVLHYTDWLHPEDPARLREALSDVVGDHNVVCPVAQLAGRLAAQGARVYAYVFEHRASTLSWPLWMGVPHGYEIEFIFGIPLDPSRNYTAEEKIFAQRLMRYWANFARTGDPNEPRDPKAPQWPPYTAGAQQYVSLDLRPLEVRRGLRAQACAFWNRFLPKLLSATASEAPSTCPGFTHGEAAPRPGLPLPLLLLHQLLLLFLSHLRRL

Regarding `O=C1/C(=N\Nc2ccccc2Cl)C(C(F)(F)C(F)(F)F)=NN1c1ccccc1` [6c, (4Z)-4-[2-(2-Chlorophenyl)hydrazinylidene]-5-(pentafluoroethyl)-2-phenyl-2,4-dihydro-3H-pyrazol-3-one], the inhibition at 20 µM was determined as 3.3 ± 0.6% in series [1] and 6.5 ± 1% in [2]. Besides, the MIC in series [3] was greater than 250 µg/mL; in [5], greater than 200 µg/mL; in [6], 200 µg/mL (≈ 480 µM); in series [7] it was greater than 200 µg/mL; in [8], greater than 200 µg/mL. Also, the survival at 14 days in series [4] was found to be 100%. Besides, the change in vivo at 15 mg/kg stood at 75% in the series on Sprague-Dawley (SD) rats (setting [11]) and 51% in the series with Sprague-Dawley (SD) rats (setting [12]).

Take `O=C1/C(=N\Nc2ccccc2)C(C(F)(F)F)=NN1c1ccccc1` [5e, (4Z)-2-Phenyl-4-(2-phenylhydrazinylidene)-5-(trifluoromethyl)-2,4-dihydro-3H-pyrazol-3-one]: the inhibition at 20 µM in [2] was 5.1 ± 0.9%. Further, the “ABTS•+-scavenging activity, TEAC (trolox equivalent antioxidant capacity)” value (from here on “ABTS•+-scavenging activity, TEAC”) in series [9] is recorded as 0.02. Further, the “ORAC-FL (TE, antioxidant activity in Trolox equivalents)” value (shortened to “ORAC-FL”) in series [10] was “i.t.s”. Besides, the MIC was greater than 250 µg/mL in series [3]; 200 µg/mL (≈ 602 µM) in series [5]; 200 µg/mL (≈ 602 µM) in [6]; greater than 200 µg/mL in [7]; 200 µg/mL (≈ 602 µM) in [8]. Further, the survival at 14 days in [4] amounted to 100%. The change in vivo at 15 mg/kg worked out at 100% with Sprague-Dawley (SD) rats (setting [11]) and 129% in the series with Sprague-Dawley (SD) rats (setting [12]).

`COc1ccc(N/N=C2\C(=O)N(c3ccccc3)N=C2C(F)(F)F)cc1` [5g, (4Z)-4-(2-(4-Methoxyphenyl)hydrazinylidene)-2-phenyl-5-(trifluoromethyl)-2,4-dihydro-3H-pyrazol-3-one]: the inhibition at 20 µM in series [1] is 12.3 ± 2.3%. In addition, in series [9], the 50% inhibitory concentration (IC50) was 55.6 ± 2.4 µM and the “ABTS•+-scavenging activity, TEAC” value came to 0.35 ± 0.03. In series [10], the “ORAC-FL” value is reported as 2.20 ± 0.36. The MIC in series [3] was 0.9 µg/mL (≈ 2.48 µM). Moreover, in [4], the survival at 14 days turned out to be 100%. In the series with Sprague-Dawley (SD) rats (setting [12]), the change in vivo at 15 mg/kg is 76.9%.

Consider `CCOC(=O)c1ccc(N/N=C2\C(=O)N(c3ccccc3)N=C2C(F)(F)F)cc1` [5l, (4Z)-4-[2-(4-Ethoxycarbonyl)hydrazinylidene]-2-phenyl-5-(trifluoromethyl)-2,4-dihydro-3H-pyrazol-3-one], for which the figures for the inhibition at 20 µM in [1] and in series [2] were 16.7 ± 1.5% and 3.2 ± 0.8%, respectively. For the same molecule, the “ORAC-FL” value in [10] was “i.t.s”. For the same molecule, the MIC in series [3] is 31.2 µg/mL (≈ 77.2 µM). The survival at 14 days in series [4] was 100%. Moreover, the change in vivo at 15 mg/kg in the series with Sprague-Dawley (SD) rats (setting [11]) came out at 68.1%; with Sprague-Dawley (SD) rats (setting [12]) it was 107%.

As to `Cc1ccc(N/N=C2\C(=O)N(c3ccc(S(C)(=O)=O)cc3)N=C2C(F)(F)F)cc1` [5q, (4Z)-2-[4-(Methylsulfonyl)phenyl]-4-[2-(4-methylphenyl)hydrazinylidene]-5-(trifluoromethyl)-2,4-dihydro-3H-pyrazol-3-one], the inhibition at 20 µM in series [1] was 4.3 ± 0.8%. The “ABTS•+-scavenging activity, TEAC” value in series [9] came to 0.02 ± 0.001. Moreover, the “ORAC-FL” value in [10] is listed as “i.t.s”. In series [3], the MIC is greater than 250 µg/mL. This molecule had a survival at 14 days in [4] of 100%. The results for the change in vivo at 15 mg/kg in the series on Sprague-Dawley (SD) rats (setting [11]) and in the series with Sprague-Dawley (SD) rats (setting [12]) were 104% and 110%, respectively.
